Laboratory results published in US20220047507A1, “MELFLUFEN DOSAGE REGIMENS FOR CANCER” (ONCOPEPTIDES AB, priority 2015, published 2022).

How the values were obtained:
[1] = system: relapsed-refractory multiple myeloma (RRMM) patients; test: Efficacy in patients with RRMM, Example 2a; type: in vivo, human
Method: Example 2: An open label single arm extension on the dose of 40 mg over 30 minutes of Example 1. Intravenous melflufen was administered over 30 minutes on Day 1 of a 21-day cycle or 28-day cycle (in combination with 40 mg dexamethasone (oral or intravenous) treatment on Days 1, 8 and 15) for at least 2 cycles, and up to the stated number of cycles. The cycle length was extended during the Example 2 Clinical Trial from 21 to 28 days per a protocol amendment to allow for a better recovery of neutrophils and thrombocytes before a new cycle is initiated.
Example 2a results are from a data cut-off of time point (a). Example 2b results are from a data cut-off of time point (bi) for the efficacy data, which was approximately 12 months after time point (a); and from a data cut-off of time point (bii) for the safety data, which was approximately 10 months after time point (a).
By the data cut-off point for Example 2a, 38 patients with relapsing MM had been dosed with 40 mg of melflufen hydrochloride (the 40 mg dosage excludes the mass of the salt component) administered over 30 minutes every 3 weeks (21 days) in combination with weekly dexamethasone (day 1, 8 and 15). 162 doses of melflufen were administered in total. The median number of cycles initiated was 3 (1-13) and the median duration of treatment was 13 weeks (2-51). The mean dose intensity was 96% (77-100). By the data cut-off point, ten patients were still in treatment, 2 had completed treatment and 26 patients discontinued from treatment (15 due to AEs, 8 due to PD, 2 deaths and 1 for other reasons). Twenty-seven patients were still in the study (10 patients in treatment and 17 in follow-up), while 11 patients were off study (8 patients due to death, 1 due to PD, 1 withdrew consent and 1 lost in follow-up).
Twenty-seven patients were evaluable for efficacy (per the protocol, these patients had received at least two cycles of melflufen and had adequate follow-up assessments). 11 patients were not evaluable for response due to rapid early progression (7), early termination due to adverse events (3) or too early to assess (1).

[2] = system: relapsed-refractory multiple myeloma (RRMM) patients; test: Efficacy in patients with RRMM, Example 2a; type: in vivo, human; details: Evaluable ≥ 1 cycle, n 35
[3] = system: relapsed-refractory multiple myeloma (RRMM) patients; test: Safety in patients with RRMM, Example 2b, time point (bii); type: in vivo, human; details: of the 57 patients in the ongoing melflufen study
[4] = system: MM cells; details: in vitro; cited from earlier work
[5] = system: different human tumors, including MM; details: at seemingly comparable toxicity; cited from earlier work
[6] = clinical; details: human, in vivo, iv; for AUC(0-t): AUC0-4; for AUC(0-inf): AUCinf
[7] = system: MM cell lines resistant to dexamethasone, bortezomib and melphalan; details: in vitro; cited from earlier work
[8] = system: primary MM cells from patients; details: in vitro, incl. patients relapsing after bortezomib, lenalidomide, dexamethasone; cited from earlier work
[9] = Evaluable ≥ 2 cycles, n 27, listed as Melflufen
[10] = Number of refractory agents 0, Example 2a (n = 27)
[11] = Number of refractory agents 1, Example 2a (n = 27)
[12] = Number of refractory agents 2, Example 2a (n = 27)
[13] = Number of refractory agents 3, Example 2a (n = 27)
[14] = Number of refractory agents 4, Example 2a (n = 27)
[15] = Pomalidomide refractory, Example 2a, 27 evaluable
[16] = refractory status None, Example 2a, 27 evaluable
[17] = refractory status PI + IMiD + Alkylator, Example 2a, 27 evaluable

Q: What does the source list for `CCOC(=O)[C@H](Cc1ccc(F)cc1)NC(=O)[C@@H](N)Cc1ccc(N(CCCl)CCCl)cc1.Cl` [melflufen, L-Melphalanyl-4-fluoro-L-phenylalanine ethyl ester]?
A: Clinical Benefit Rate (CBR) ([1]; Evaluable ≥ 1 cycle, n 35): 43%; Minimal Response (MR), patients ([1]; Evaluable ≥ 1 cycle, n 35): 4; Overall Response Rate (ORR) ([1]; Evaluable ≥ 1 cycle, n 35): 31%; Stable Disease (SD), patients ([1]; Evaluable ≥ 1 cycle, n 35): 12; Very Good Positive Response (PR), patients ([1]; Evaluable ≥ 1 cycle, n 35): 2; Clinical Benefit Rate (CBR) ([1]; Evaluable ≥ 2 cycles, n 27): 56%; Minimal Response (MR), patients ([1]; Evaluable ≥ 2 cycles, n 27): 4; Overall Response Rate (ORR) ([1]; Evaluable ≥ 2 cycles, n 27): 41%; Positive Response (PR), patients ([1]; Evaluable ≥ 2 cycles, n 27): 9; Progressive Disease (PD), patients ([1]; Evaluable ≥ 2 cycles, n 27): 1; Stable Disease (SD), patients ([1]; Evaluable ≥ 2 cycles, n 27): 11; Very Good Positive Response (PR), patients ([1]; Evaluable ≥ 2 cycles, n 27, 40 mg over 30 min + dexamethasone): 2; Clinical Benefit Rate (CBR) [1, 9]: 56%; Overall Response Rate (ORR) [1, 9]: 41%; median duration of response (DOR) ([1]; Example 2a, 4 events in 11 responding patients): 9.6 months; median progression free survival (PFS) ([1]; Example 2a, 13 events in 27 patients): 9.4 months; hazard ratio for melflufen compared to pomalidomide (PFS) ([1]; Example 2a, all treated n=38 vs published pomalidomide trial): 0.68 (0.44-1.05); CBR(≥MR) [1, 10]: (100) %; ORR (≥PR) [1, 10]: (100) %; CBR(≥MR) [1, 11]: (54) %; ORR (≥PR) [1, 11]: (38) %; CBR(≥MR) [1, 12]: (57) %; ORR (≥PR) [1, 12]: (43) %; CBR(≥MR) [1, 13]: (63) %; ORR (≥PR) [1, 13]: (44) %; CBR(≥MR) [1, 14]: (71) %; ORR (≥PR) [1, 14]: (43) %; CRR (≥MR) [1, 15]: (50) %; ORR (≥PR) [1, 15]: (30) %; reduction in risk of death over 16 months compared to pomalidomide ([1]; RRMM patient population, Example 2a): 32%; CRR (≥MR) ([1]; Triple refractory (2 PI/ImiD + 1 ImiD/PI), Example 2a, 27 evaluable): (60) %; best response of minimal response (MR) or better, n patients ([1]; of 27 evaluable): 15; confirmed PR, n patients ([1]; of 27 evaluable): 11; CRR (≥MR) ([1]; refractory status Alkylator, Example 2a, 27 evaluable): (64) %; CRR (≥MR) ([1]; refractory status IMiD, Example 2a, 27 evaluable): (52) %; CRR (≥MR) [1, 16]: (100) %; ORR (≥PR) [1, 16]: (100) %; CRR (≥MR) [1, 17]: (44) %; ORR (≥PR) [1, 17]: (33) %; CRR (≥MR) ([1]; refractory status PI + IMiD, Example 2a, 27 evaluable): (44) %; CRR (≥MR) ([1]; refractory status PI, Example 2a, 27 evaluable): (47) %; Positive Response (PR), patients [2]: 9; Progressive Disease (PD), patients [2]: 8; fatal events while on treatment or within 30 days of last dose [3]: 11%; intracellular exposure (as AUC) of alkylating agents compared to an equimolar dosage of melphalan [4]: ≥ 20 fold; antitumor activity over equimolar dosage of melphalan [5]: superior antitumor activity; AUC(0-t) ([6]; 15 mg): 13.5 ng·h/mL; AUC(0-inf) ([6]; 15 mg): 16.3 ng·h/mL; Cmax ([6]; 15 mg): 39 ng/mL; half-life ([6]; 15 mg, T1/2): 13 min; tmax ([6]; 15 mg): 15 min; AUC(0-t) ([6]; 25 mg): 40.8 ng·h/mL; AUC(0-inf) ([6]; 25 mg): 40.8 ng·h/mL; Cmax ([6]; 25 mg): 102 ng/mL; half-life ([6]; 25 mg, T1/2): 4.6 min; tmax ([6]; 25 mg): 12 min; AUC(0-t) ([6]; 40 mg): 89.3 ng·h/mL; AUC(0-inf) ([6]; 40 mg): 89.3 ng·h/mL; Cmax ([6]; 40 mg): 222 ng/mL; half-life ([6]; 40 mg, T1/2): 1.1 min; tmax ([6]; 40 mg): 15 min; AUC(0-t) ([6]; 55 mg): 102 ng·h/mL; AUC(0-inf) ([6]; 55 mg): 102 ng·h/mL; Cmax ([6]; 55 mg): 245 ng/mL; half-life ([6]; 55 mg, T1/2): 2.7 min; tmax ([6]; 55 mg): 25 min; half-life ([6]; half-life of melflufen concentrations after end of infusion): 3 to 5 min; cytotoxic activities in resistant MM cell lines [7]: concentrations similar to those observed in the parenteral, non-resistant cell lines; cytotoxic activity in primary MM cells [8]: Potent cytotoxic activity
